Assay results from paper PMC4469081 (Bioorganic & medicinal chemistry letters, 2015).
Entries after “also recorded” stand apart in the source; their conditions may differ. Blank lines part the entries; values can stand above or below the compound they belong to.

Assays:
Assay type in all cases: cell-based
[1] = molecular target: T1, mouse SR-BI (ldlA[mSR-BI]) (Mus musculus, UniProt Q61009); test: DiI-HDL uptake assay
T1 sequence (Q61009 1-509): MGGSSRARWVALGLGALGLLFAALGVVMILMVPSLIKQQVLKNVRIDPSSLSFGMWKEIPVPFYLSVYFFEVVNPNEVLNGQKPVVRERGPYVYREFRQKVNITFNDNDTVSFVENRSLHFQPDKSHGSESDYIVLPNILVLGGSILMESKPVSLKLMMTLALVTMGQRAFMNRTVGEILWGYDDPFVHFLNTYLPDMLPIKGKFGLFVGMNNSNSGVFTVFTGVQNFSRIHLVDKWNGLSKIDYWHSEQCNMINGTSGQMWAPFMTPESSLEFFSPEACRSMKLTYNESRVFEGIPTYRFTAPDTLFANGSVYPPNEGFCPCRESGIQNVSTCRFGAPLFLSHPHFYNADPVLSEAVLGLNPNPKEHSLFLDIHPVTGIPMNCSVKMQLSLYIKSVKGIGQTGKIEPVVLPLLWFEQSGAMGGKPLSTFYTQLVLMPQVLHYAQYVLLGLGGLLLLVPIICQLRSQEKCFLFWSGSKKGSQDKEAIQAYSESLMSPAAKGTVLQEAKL

[2] = test system: receptor-mediated endocytosis of transferrin by ldlA[mSR-BI] cells; test: Endocytosis of Alexa-594-labeled transferrin; conditions: concentrations up to 35 μM
[3] = test system: ldlA[mSR-BI] cells; test: Cytotoxicity in the assay cell line; conditions: 24 h incubation stated for 1a

Fold decrease in activity relative to 1a ([1]; carbon atom inserted between cyclohexyl group and backbone nitrogen): greater than 20 fold
Structure (SMILES): COc1ccc(-c2nnn(CC(=O)N(CC3CCCCC3)C(C)C(=O)NC3CCCC3)n2)cc1OC (centres unmarked) [Compound 4d]

Fold more potent than its enantiomer 5d ([1]; (R)-isomer vs (S)-isomer): 100 fold
Structure (SMILES): C[C@H](C(=O)NC1CCCC1)N(C(=O)Cn1nnc(-c2ccc3c(c2)OCO3)n1)C1CCCCC1 [Compound 5e]
Inhibition of transferrin endocytosis [2]: no inhibition
Cytotoxicity ([3]; listed as ML279): non-toxic; also recorded: not cytotoxic

Structure (SMILES): COc1ccc(-c2nnn(CC(=O)N(C3CCCCC3)C(C)C(=O)NC3CCCC3)n2)cc1OC (centres unmarked) [Compound 1a]
Cytotoxicity [3]: no measurable cytotoxicity
